Laboratory results from patent publication US8445190B2, “Method of inhibiting biomaterial-induced procoagulant activity using complement inhibitors” (The Trustees of the University of Pennsylvania, priority 2008, dated 2013).
Where no end group is shown, it is not given here.

Tests used:
[1] = test system: TF-dependent procoagulant activity of PMN culture supernatants; experiment: modified prothrombin time (mPT) of supernatants of healthy PMNs incubated with ESRD hemodialysis serum; type: cell-based, human; conditions: for mPT values: FIG. 4A; for effect on procoagulant activity (mPT) induced by ESRD serum in PMN supernatants: in words, FIG. 1A / FIG. 4A
From the text: (§1) Complement and anaphylatoxin inhibition studies. I) Compstatin, a 13-residue cyclic peptide (Ac-I[CVWQDWGAHRTC]TNH2) that inhibits the cleavage of native C3 by the C3 convertase, was used as a specific inhibitor of complement activation at the C3 level. In certain studies, a compstatin analog (1-methyl tryptophan as the 4th residue) was used. […] II) SB-290152, a selective nonpeptide antagonist of the complement anaphylatoxin receptor C3aR, was used in this study to dissect the involvement of C3aR signalling in the generation of neutrophil derived TF [27]. III) To block C5aR stimulation on neutrophils, a small cyclic hexapeptide (AcF-[OPdChaWR]) that acts as a selective C5aR antagonist was used. Sera were pre-incubated for 30 min with Compstatin or its linear analogue (15 μM final concentration), before incubation with leukocytes. Furthermore, serum for stimulation was added to leukocytes that had been pre-incubated for 30 min with C3aRa or C5aRa (5-10 μM final concentration). Approximately […] washed cells from healthy donors were used for the subsequent incubations, The final volume was adjusted with PBS at 250 μl and the leukocytes were incubated for 90-120 min at 37° C.
Modified prothrombin time (mPT) assay to examine TF mediated coagulation activity in cell supernatants, complement inhibition and anaphylatoxin receptor studies. Since it has been shown previously that TF dependent procoagulant activity in leukocyte culture supernatants is altered after C5a/C5aR stimulation or blockade, the mPT method was used in order to estimate primarily the kinetics of TF induction. The presence of TF in supernatants is probably due to the presence of the soluble, spliced TF isoform or TF microparticles.
At the end of the incubation period, supernatants of cells were collected by centrifugation at 800 g for 10 min and were checked a second time to confirm the absence of cells and platelets. The coagulation activity properties (TF/FVIIa binding activity) of the cell supernatants were determined using a modified prothrombin time (mPT) assay. Briefly, after performing the “classic” PT test (100 μl platelet poor plasma [PPP] plus 200 μl thromboplastin ISI 1.7 (Instrumentation Laboratory, Milan, Italy), the modified PT analysis was carried out. Namely, 125 μl of cell supernatant and 75 μl thromboplastin were added to 100 μl of PPP to measure the changes of PT. As control of mPT, 125 μl of PBS was used instead of cell supernatant and the in vitro clotting time usually ranged from 31 to 34 sec.
To verify that the thromboplastic activity was due to TF alone, supernatants were incubated for 30 min with a specific neutralizing anti-TF monoclonal antibody (mAb, No 4509, American Diagnostica, Greenwich, Conn., USA), 10 μg/ml, at room temperature. PT was then measured by the mPT method. Non-specific controls involved incubation with the same subclass and concentration of mouse anti-human antibodies, as well as with different secondary antibodies.
Serum of ESRD patients exerts procoagulant activity through TF induction and follows a time dependent manner during the hemodialysis course. […] The procoagulant activity of the above cell culture supernatants was measured using the mPT method.

[2] = test system: TF-dependent procoagulant activity of PMN culture supernatants; experiment: mPT of PMN supernatants after incubation with serum preincubated with polysulfone hemodialysis filter fibers; type: cell-based, human; conditions: for mPT: FIG. 5C
Method: (§2) FIG. 5: Hemodialysis filter fibers induce in vitro TF dependent procoagulant properties in both ESRD and healthy serum through complement activation. […] C3b generation was detected by […]. CVF-activated plasma was used as a standard for 100% complement activation. The percentage of complement activation is depicted in the diagram. B: Serum from healthy donors was preincubated with hollow fibers from polysulfone hemodialysis filters at different time periods (10, 30, 60 & 120 min). PMNs were incubated with the pretreated serum and their supernatants were assayed for TF with mPT. A time-dependent procoagulant activity was observed (bar 2: 28.06±0.21, 3: 27.32±0.39, 4: 25.65±0.78, 5: 24.67±0.47, p<0.01 compared to bar 1: 31.81±0.28), which was blocked by the addition of anti-TF mAb in supernatants showing the highest procoagulant effect (bar 6: 31.49±0.12, p<0.05 compared to bar 5). C: Predialysis ESRD serum preincubated for 60 min with filter fibers, induced stronger procoagulant activity in PMN culture supernatants compared to when healthy serum was used (bars 3: 25.65±0.78, 6: 20.06±0.35, p<0.01 compared to bars 1: 33.12±0.25, 2: 29.07±0.33, respectively). Inhibitions with compstatin or C5aR antagonist, in both pre-treated sera, elucidated that the observed TF-dependent procoagulant activity was complement mediated (bars 4: 29.60±0.57, 5: 29.15±0.49 & 7: 26.85±0.21, 8: 26.05±0.35, p<0.01 compared to bars 3 and 6, respectively).
Complement and anaphylatoxin inhibition studies. I) Compstatin, a 13-residue cyclic peptide (Ac-I[CVWQDWGAHRTC]TNH2) that inhibits the cleavage of native C3 by the C3 convertase, was used as a specific inhibitor of complement activation at the C3 level. […]
At the end of the incubation period, supernatants of cells were collected by centrifugation at 800 g for 10 min and were checked a second time to confirm the absence of cells and platelets. The coagulation activity properties (TF/FVIIa binding activity) of the cell supernatants were determined using a modified prothrombin time (mPT) assay. […]

[3] = test system: TF mRNA expression in PMNs; experiment: real time RT-PCR of TF mRNA in PMNs incubated with activated ESRD serum; type: cell-based, human; conditions: FIG. 4B
Method: 4: Involvement of the complement pathway in the procoagulant properties of ESRD serum. […] In contrast, both a selective C3aR antagonist (10 μM-30 min) and a non-active linear analogue of compstatin had no effect on mPT values (bars 6, 7: 22.99±0.26 and 24.16±0.23, respectively; p: n.s. vs. bar 3).
as §1
RNA extraction, RT & relative quantitative real-time PCR analysis. […] In order to quantify the relative expression level of the two TF isoforms with coagulant properties [(full-length TF (referred to hereafter as ‘TF’) and alternative spliced TF (asTF)], isoform specific real-time PCR was performed. In each sample TF, asTF and GAPDH mRNA sequence-specific primers and probes for detection were applied. The 2^−DDCT method was used for quantification of the target gene expression.

[4] = test system: complement activation (C3b generation); experiment: C3b generation ELISA in plasma incubated with hemodialysis filter fibers; type: biochemical; conditions: in words; FIG. 5A; plasma with 15 mg fibers, over time, two concentrations
Method: as §2, with “Inhibitions with compstatin or C5aR antagonist, in both pre-treated sera, elucidated that the observed TF-dependent procoagulant activity was complement mediated (bars 4: 29.60±0.57, 5: 29.15±0.49 & 7: 26.85±0.21, 8: 26.05±0.35, p<0.01 compared to bars 3 and 6, respectively).” left out

[5] = test system: complement activation (C3b); experiment: hemodialysis simulation with whole blood: ELISA of C3 cleavage products (C3-9 mAb) in plasma; type: biochemical, human; conditions: in words; 40 uM in whole blood circuit; FIG. 7A
From the text: (§3) FIG. 7. Complement activation during hemodialysis simulation is reduced or prevented by a compstatin analog. […] A: ELISA detection of complement activation fragment C3b using a C3-9 mAB. B: Detection of cellular cascade activation by flow cytometry after surface staining of blood neutrophils for CD11b. C: Detection of coagulation cascade activation by flow cytometry after intracellular staining of blood neutrophils for tissue factor (TF).
(§4) Whole blood was collected from healthy volunteers. […] All experiments were started within 30 min after blood collection.
(§5) To minimize the blood volume needed, HPH Junior polysulfone dialyzers (Minntech Corporation) were used. Standard bloodline components served as tubing system (Arterial & venous blood lines, Set a/v for Fresenius 2008/4008, HMC Premedical S.p.A., Italy). […]
(§6) To examine the activation of crucial pathways involved in the interaction of blood with the artificial surface of the dialyzer, complement, coagulation and neutrophil activation were analyzed. Briefly, complement activation was measured in plasma using a monoclonal antibody C3-9 (2 ug/ml), which recognizes a neoantigen that is exposed in C3(H2O), C3b and C3c but not in native C3. Neutrophil activation was assessed using flow cytometry after surface staining of CD11b (PE Mouse Anti-human CD11b/Mac-1, Cat. No 555388, BD Pharmigen). […]

[6] = test system: CD11b on blood neutrophils; experiment: hemodialysis simulation with whole blood: flow cytometry of CD11b on blood neutrophils; type: cell-based, human; conditions: in words; 40 uM in whole blood circuit; FIG. 7B
From the text: as §3, §4, §5, §6

[7] = test system: tissue factor (TF) in blood neutrophils; experiment: hemodialysis simulation with whole blood: flow cytometry of intracellular tissue factor in blood neutrophils; type: cell-based, human; conditions: in words; 40 uM in whole blood circuit; FIG. 7C
From the text: as §3, §4, §5, §6

[8] = PMNs preincubated with receptor antagonist (10 μM-30 min), then ESRD serum of 15 to 30 min of hemodialysis, no antagonist bar 3: 22.96±0.22, control bar 1: 31.96±0.21

## NC(N)=NCCC[C@H](NC(=O)COCC(c1ccccc1)c1ccccc1)C(=O)O [C3aR antagonist, SB-290152]
[1]; [8]
  mPT values: 22.99±0.26
[1]
  effect on procoagulant activity (mPT) induced by ESRD serum in PMN supernatants: did not affect the mPT values
[2]; in words, FIG. 5B/5C
  effect on procoagulant activity induced by filter-fiber treated serum in neutrophil supernatants: no effect on the procoagulant activity

## Acetyl-Phe-[Orn-Pro-D-cyclohexylalanine-Trp-Arg] (FXPXWR; non-natural residues; cyclised or stapled) [C5aR antagonist]
[1]; [8]
  mPT values: 31.65±0.28
[1]
  effect on procoagulant activity (mPT) induced by ESRD serum in PMN supernatants: abrogated the observed procoagulant activity
[3]; PMNs incubated with activated serum bar 1: 7.92±0.29
  average DCt of TF mRNA: 9.02±0.62
[3]; vs. PMNs incubated with activated serum (bar 1)
  fold decrease of TF mRNA expression: 2.14 fold
[3]; in words
  effect on TF expression in PMNs (2^−DDCT analysis): inhibited the stimulation effect
[2]; healthy serum preincubated 60 min with filter fibers, without inhibitor bar 3: 25.65±0.78
  mPT: 29.15±0.49
[2]; predialysis ESRD serum preincubated 60 min with filter fibers, without inhibitor bar 6: 20.06±0.35
  mPT: 26.05±0.35

## IAVWQDWGAHRTAT-NH2 [non-active linear analogue of compstatin, reference compound]
[1]; ESRD serum taken at 15 to 30 min of hemodialysis treated with peptide (15 μM-30 min), healthy donor's PMNs (N=6), untreated serum bar 3: 22.96±0.22, control bar 1: 31.96±0.21
  mPT values: 24.16±0.23
[4]
  inhibition of complement activation induced by hemodialysis biomaterials (C3b generation): not inhibited

## I[CV^(1−Me)WQDWGAHRC]I—NH2 [compstatin analog 4[1MeW]]
[5]
  effect on time-dependent complement activation (C3 cleavage products in plasma): abrogated this activation
[6]
  effect on cellular activation (CD11b surface staining of neutrophils): attenuated
[7]
  effect on coagulation cascade activation (intracellular TF in neutrophils): attenuated
